Experimental data published in US4317817A, “Novel steroid 5α-reductase inhibitors” (Richardson-Merrell Inc., priority 1980, dated 1982).

How the values were obtained:
5α-reductase = assay: Affinity (Ki, Km) for 5α-reductase; format: biochemical
From the text: The potency of any enzyme inhibitor is often expressed in terms of its inhibition constant, Ki, which is defined mathematically in terms of established relationships of enzyme-catalyzed reaction rates to inhibitor and substrate concentrations. […] In the case of the substrate, the corresponding value is known as the Km, the relationship to combining power being roughly the same.

[1] = system: testosterone 5α-reductase; assay: Inhibition of 5α-reductase isolated from rat prostate gland (prostate microsomes, 4-14C-testosterone); format: biochemical; details: testosterone 2×10^-6 M, microsomes equivalent to 180 mg fresh tissue
ventral prostate = assay: Prostate weight in castrated male rats treated with testosterone (benign prostatic hypertrophy procedure); format: in vivo; details: 200 mg/kg gavage every 8 hours for 8 days plus testosterone 0.6 mg/rat s.c. daily; compared to testosterone only (Group II)
Procedure: The effectiveness of the present compounds for the treatment of benign prostatic hypertrophy can be illustrated by the following procedure using 3 groups of castrated male rats. Starting 10 days after castration, Test Group I (5 animals) received 200 mg/kg of (5α,20R) -4-diazo-21-hydroxy-20-methylpregnan-3-one, given by gavage every 8 hours for 8 days as a suspension in 0.25 % aqueous Methocel. Starting 8 hours after the first dose of test compound, the animals also received testosterone daily at a dose of 0.6 mg/rat s.c. in olive oil. The last dose of test compound was administered 8 hours after the last dose of testosterone and the animals were sacrificed 8 hours later. Test Group II (12 animals) received only the testosterone treatment described above while the third group of rats (10 animals) served as controls and received the oral and s.c. vehicles only. At sacrifice, the ventral prostate was removed and weighed.

preputial glands = assay: Preputial gland weight in castrated male rats treated with testosterone; format: in vivo; details: 200 mg/kg gavage every 8 hours for 8 days plus testosterone 0.6 mg/rat s.c. daily; compared to control rats

With `C[C@H](CO)[C@H]1CC[C@H]2[C@@H]3CC[C@H]4C(=[N+]=[N-])C(=O)CC[C@]4(C)[C@H]3CC[C@]12C` as the compound, how does the Ki (5α-reductase) read?
The Ki was 35 nM.

And the “affinity for the enzyme relative to the substrate (testosterone)” value (5α-reductase; vs Km of testosterone)?
The value was 29 times.

What about the “potency relative to the previous inhibitor” value (5α-reductase; vs previously known inhibitor of the comparison) of the same compound?
Its value is 6.3 times.

Which “inhibition of the conversion of testosterone to 5α-reduced products” value ([1]; inhibitor 3×10^-7 M) does the source give for `C[C@@H](CO)[C@H]1CC[C@H]2[C@@H]3CC[C@H]4C(=[N+]=[N-])C(=O)CC[C@]4(C)[C@H]3CC[C@]12C` [(5α,20R)-4-Diazo-21-hydroxy-20-methylpregnan-3-one] here?
The value was 75%.

What about the “inhibition of the conversion of testosterone to DHT and androstanediol (ADIOL) overall” value ([1]; inhibitor 3×10^-8 M) of the same compound?
Its value is 49%.

And the “prostatic weight (ventral prostate)” value (ventral prostate)?
The value was “significant reduction in prostatic weight”.

What about the “weights of preputial glands” value (preputial glands) of the same compound?
The value was “significantly less than weights of preputial glands of the control rats”.

With `CC(CO)[C@H]1CC[C@H]2[C@@H]3CCC4=CC(=O)CC[C@]4(C)[C@H]3CC[C@]12C` (stereo partly drawn) [reference compound] as the compound, how does the Ki (5α-reductase) read?
Its Ki is 220 nM.

For `C[C@]12CC[C@H]3[C@@H](CCC4=CC(=O)CC[C@@]43C)[C@@H]1CC[C@@H]2O` [testosterone, reference compound], which Km (5α-reductase; substrate) is on record?
The Km was 1 µM.
